For data set [1], the system named is IL-1α secretion by three-dimensional human epidermal equivalents (EPI-200). As to conditions: 24 h. The method, then:
Test materials (30 μl) were topically applied onto three-dimensional human epidermal equivalents (EPI-200 from MatTek, Ashland, Mass.), n=3 tissues per treatment group.

The test system is the same in data set [2].
The subject of data set [3] is three-dimensional human epidermal equivalents (EPI-200). Nature of the data set: In vitro Skin Irritation Test, SDS-induced irritation: MTT tissue viability. The settings on record: for Mean of viability (%): MTT after 42 hr post-exposure.

Turning to `CC1=C(/C=C/C(C)=C/C=C/C(C)=C/CO)C(C)(C)CCC1` [Retinol, retinol], the “IL-1α (pg/mL) = Average IL1α (pg/mL) treated tissue minus Average IL1α (pg/mL) negative control” value in data set [1] is on record as 98.301 pg/mL.
Turning to `CCCCCCCCCCCCOS(=O)(=O)[O-].[Na+]` [SDS, sodium dodecyl sulfate], in data set [2], the “irritant classification by IL-1α results” value is “irritant”. The “Mean of viability (%)” value came to 74.75% in data set [3] (0.2% SDS, alone or applied after dried 1% OsC); 73.04% in data set [3] (0.4% SDS, alone or applied after dried 1% OsC); 19.21% in data set [3] (0.6% SDS, alone or applied after dried 1% OsC); 3.12% in data set [3] (test agent alone (OsC 1%; PC = 5% SDS)). Further, the “irritant classification by MTT assay (cut-off 50% viability)” value in data set [3] (0.6% SDS, alone or combined with OsC) is “irritant”.

The record behind these values is patent publication US11344507B2, “Topical compositions containing low molecular weight chitosan derivatives” (ALUMEND, LLC, priority 2019, dated 2022).
